Assay results as given in ChEMBL document CHEMBL3044888, “Fungicidal activity of indole derivatives against some plant pathogenic fungi” (J Pestic Sci, 2010).
In brackets after ≈: the same amount, converted by molar mass.

Key:
[1] = system: Globisporangium debaryanum; assay: In vivo effect on peroxidase activity in Pythium debaryanum assessed as DNA content at 2 times of IC50 concentration (reference value: 31 +/- 0.8 mg/l); type: functional
Rhizoctonia solani [2] = assay: In vivo effect on peroxidase activity in Rhizoctonia solani assessed as RNA content at 0.5 times of IC50 concentration (reference value: 25 +/- 0.7 mg/l); type: functional
Fusarium culmorum [3] = assay: In vivo effect on peroxidase activity in Fusarium culmorum assessed as RNA content at 0.25 times of IC50 concentration (reference value: 51.5 +/- 1.5 mg/l); type: functional
Macrophomina phaseolina [4] = assay: In vivo effect on peroxidase activity in Macrophomina phaseoli assessed as DNA content at 2 times of IC50 concentration (reference value: 15.5 +/- 0.5 mg/l); type: functional
Fusarium culmorum [5] = assay: In vivo effect on peroxidase activity in Fusarium culmorum assessed as RNA content at 2 times of IC50 concentration (reference value: 51.5 +/- 1.5 mg/l); type: functional
[6] = system: Globisporangium debaryanum; assay: In vivo effect on peroxidase activity in Pythium debaryanum assessed as RNA content at 0.25 times of IC50 concentration (reference value: 32.2 +/- 0.7 mg/l); type: functional
Fusarium culmorum [7] = assay: Inhibition of peroxidase activity in Fusarium culmorum at 0.5 times of IC50 concentration
Fusarium culmorum [8] = assay: In vivo effect on peroxidase activity in Fusarium culmorum assessed as DNA content at 0.1 times of IC50 concentration (reference value: 49.5 +/- 1.6 mg/l); type: functional
Fusarium culmorum [9] = assay: In vivo effect on peroxidase activity in Fusarium culmorum assessed as DNA content at 2 times of IC50 concentration (reference value: 49.5 +/- 1.6 mg/l); type: functional
Macrophomina phaseolina [10] = assay: In vivo effect on peroxidase activity in Macrophomina phaseoli assessed as total soluble sugar content per gram of dry hyphal at 0.1 times of IC50 concentration (reference value: 19.3 +/- 0.7 mg/g of dry weight); type: functional
Macrophomina phaseolina [11] = assay: In vivo effect on peroxidase activity in Macrophomina phaseoli assessed as DNA content at 1 times of IC50 concentration (reference value: 15.5 +/- 0.5 mg/l); type: functional
Macrophomina phaseolina [12] = assay: In vivo effect on peroxidase activity in Macrophomina phaseoli assessed as reduced sugar content per gram of dry hyphal at 0.5 times of IC50 concentration (reference value: 7.3 +/- 0.5 mg/g of dry weight); type: functional
[13] = system: Globisporangium debaryanum; assay: In vivo effect on peroxidase activity in Pythium debaryanum assessed as RNA content at 0.1 times of IC50 concentration (reference value: 32.2 +/- 0.7 mg/l); type: functional
Rhizoctonia solani [14] = assay: In vivo effect on peroxidase activity in Rhizoctonia solani assessed as reduced sugar content per gram of dry hyphal at 0.5 times of IC50 concentration (reference value: 17.3 +/- 1 mg/g of dry weight); type: functional
Rhizoctonia solani [15] = assay: In vivo effect on peroxidase activity in Rhizoctonia solani assessed as DNA content at 2 times of IC50 concentration (reference value: 24 +/- 0.7 mg/l); type: functional
Macrophomina phaseolina [16] = assay: In vivo effect on peroxidase activity in Macrophomina phaseoli assessed as non-reducing sugar content per gram of dry hyphal at 0.1 times of IC50 concentration (reference value: 12 +/- 0.8 mg/g of dry weight); type: functional
Macrophomina phaseolina [17] = assay: In vivo effect on peroxidase activity in Macrophomina phaseoli assessed as RNA content at 2 times of IC50 concentration (reference value: 16.1 +/- 0.4 mg/l); type: functional
Fusarium culmorum [18] = assay: In vivo effect on peroxidase activity in Fusarium culmorum assessed as RNA content at 1 times of IC50 concentration (reference value: 51.5 +/- 1.5 mg/l); type: functional
Rhizoctonia solani [19] = assay: In vivo effect on peroxidase activity in Rhizoctonia solani assessed as DNA content at 0.1 times of IC50 concentration (reference value: 24 +/- 0.7 mg/l); type: functional
[20] = Inhibition of polyphenoloxidase activity in Fusarium culmorum
Rhizoctonia solani [21] = assay: In vivo effect on peroxidase activity in Rhizoctonia solani assessed as RNA content at 0.25 times of IC50 concentration (reference value: 25 +/- 0.7 mg/l); type: functional
Macrophomina phaseolina [22] = assay: In vivo effect on peroxidase activity in Macrophomina phaseoli assessed as reduced sugar content per gram of dry hyphal at 1 times of IC50 concentration (reference value: 7.3 +/- 0.5 mg/g of dry weight); type: functional
Macrophomina phaseolina [23] = assay: In vivo effect on peroxidase activity in Macrophomina phaseoli assessed as non-reducing sugar content per gram of dry hyphal at 0.25 times of IC50 concentration (reference value: 12 +/- 0.8 mg/g of dry weight); type: functional
Rhizoctonia solani [24] = assay: In vivo effect on peroxidase activity in Rhizoctonia solani assessed as non-reducing sugar content per gram of dry hyphal at 1 times of IC50 concentration (reference value: 2.8 +/- 0.2 mg/g of dry weight); type: functional
Rhizoctonia solani [25] = assay: Fungicidal activity against Rhizoctonia solani assessed as inhibition of hyphal growth by radial growth test; type: functional, organism-based
Macrophomina phaseolina [26] = assay: In vivo effect on peroxidase activity in Macrophomina phaseoli assessed as non-reducing sugar content per gram of dry hyphal at 0.5 times of IC50 concentration (reference value: 12 +/- 0.8 mg/g of dry weight); type: functional
Rhizoctonia solani [27] = assay: In vivo effect on peroxidase activity in Rhizoctonia solani assessed as non-reducing sugar content per gram of dry hyphal at 0.5 times of IC50 concentration (reference value: 2.8 +/- 0.2 mg/g of dry weight); type: functional
Macrophomina phaseolina [28] = assay: In vivo effect on peroxidase activity in Macrophomina phaseoli assessed as total soluble sugar content per gram of dry hyphal at 0.25 times of IC50 concentration (reference value: 19.3 +/- 0.7 mg/g of dry weight); type: functional
Rhizoctonia solani [29] = assay: In vivo effect on peroxidase activity in Rhizoctonia solani assessed as DNA content at 0.25 times of IC50 concentration (reference value: 24 +/- 0.7 mg/l); type: functional
Fusarium culmorum [30] = assay: Inhibition of peroxidase activity in Fusarium culmorum at 0.1 times of IC50 concentration
Macrophomina phaseolina [31] = assay: In vivo effect on peroxidase activity in Macrophomina phaseoli assessed as RNA content at 0.25 times of IC50 concentration (reference value: 16.1 +/- 0.4 mg/l); type: functional
Fusarium culmorum [32] = assay: Inhibition of peroxidase activity in Fusarium culmorum at 0.25 times of IC50 concentration
Macrophomina phaseolina [33] = assay: In vivo effect on peroxidase activity in Macrophomina phaseoli assessed as RNA content at 0.5 times of IC50 concentration (reference value: 16.1 +/- 0.4 mg/l); type: functional
[34] = system: Globisporangium debaryanum; assay: Inhibition of peroxidase activity in Pythium debaryanum at 0.1 times of IC50 concentration
Rhizoctonia solani [35] = assay: In vivo effect on peroxidase activity in Rhizoctonia solani assessed as DNA content at 0.5 times of IC50 concentration (reference value: 24 +/- 0.7 mg/l); type: functional
Macrophomina phaseolina [36] = assay: In vivo effect on peroxidase activity in Macrophomina phaseoli assessed as RNA content at 1 times of IC50 concentration (reference value: 16.1 +/- 0.4 mg/l); type: functional

With c1ccc(-c2cc3ccccc3[nH]2)cc1 [2-PHENYL-1H-INDOLE] the Activity [1] was 23.3 mg/L, the Activity (Rhizoctonia solani [2]) was 30.8 mg/L and the Activity (Fusarium culmorum [3]) was 24.3 mg/L. It also gave an Activity (Macrophomina phaseolina [4]) of 5.7 mg/L, an Activity (Fusarium culmorum [5]) of 24.7 mg/L and an Activity [6] of 19.8 mg/L. It also gave an inhibition (Fusarium culmorum [7]) of 53.8%, an Activity (Fusarium culmorum [8]) of 28.6 mg/L and an Activity (Fusarium culmorum [9]) of 23.8 mg/L. For the same compound, the Activity (Macrophomina phaseolina [10]) was 8.7 mg, the Activity (Macrophomina phaseolina [11]) was 6.1 mg/L and the Activity (Macrophomina phaseolina [12]) was 2.9 mg. For the same compound, the Activity [13] was 32.1 mg/L, the Activity (Rhizoctonia solani [14]) was 16 mg and the Activity (Rhizoctonia solani [15]) was 27 mg/L. The Activity (Macrophomina phaseolina [16]) was 2.4 mg, the Activity (Macrophomina phaseolina [17]) was 5.9 mg/L and the Activity (Fusarium culmorum [18]) was 26.3 mg/L. For the same compound, the Activity (Rhizoctonia solani [19]) was 28.3 mg/L, the IC50 [20] was 87.6 µg/mL (≈ 453 µM) and the Activity (Rhizoctonia solani [21]) was 30 mg/L. The Activity (Macrophomina phaseolina [22]) was 5.8 mg, the Activity (Macrophomina phaseolina [23]) was 5.1 mg and the Activity (Rhizoctonia solani [24]) was 2.2 mg. For the same compound, the IC50 (Rhizoctonia solani [25]) was 34.6 µg/mL (≈ 179 µM), the Activity (Macrophomina phaseolina [26]) was 1.4 mg and the Activity (Rhizoctonia solani [27]) was 3.1 mg. For the same compound, the Activity (Macrophomina phaseolina [28]) was 9.7 mg, the Activity (Rhizoctonia solani [29]) was 28.9 mg/L and the inhibition (Fusarium culmorum [30]) was 7.5%. For the same compound, the Activity (Macrophomina phaseolina [31]) was 7.2 mg/L, the inhibition (Fusarium culmorum [32]) was 26.2% and the Activity (Macrophomina phaseolina [33]) was 8.3 mg/L. For the same compound, the inhibition [34] was 19.3%, the Activity (Rhizoctonia solani [35]) was 29.6 mg/L and the Activity (Macrophomina phaseolina [36]) was 6.3 mg/L.
CC(=O)n1c(-c2ccccc2)cc2ccccc21 gave an Activity [1] of 21.6 mg/L, an Activity (Rhizoctonia solani [2]) of 27.9 mg/L and an Activity (Fusarium culmorum [3]) of 31.1 mg/L. The Activity (Macrophomina phaseolina [4]) was 6.5 mg/L, the Activity (Fusarium culmorum [5]) was 20.3 mg/L and the Activity [6] was 26.8 mg/L. For the same compound, the inhibition (Fusarium culmorum [7]) was -7.9%, the Activity (Fusarium culmorum [8]) was 43.6 mg/L and the Activity (Fusarium culmorum [9]) was 19.5 mg/L. For the same compound, the Activity (Macrophomina phaseolina [10]) was 4.2 mg, the Activity (Macrophomina phaseolina [11]) was 8.2 mg/L and the Activity (Macrophomina phaseolina [12]) was 20.8 mg. The Activity [13] was 27 mg/L, the Activity (Rhizoctonia solani [14]) was 5.6 mg and the Activity (Rhizoctonia solani [15]) was 34.7 mg/L. It also gave an Activity (Macrophomina phaseolina [16]) of 1.7 mg, an Activity (Macrophomina phaseolina [17]) of 6.7 mg/L and an Activity (Fusarium culmorum [18]) of 28.3 mg/L. For the same compound, the Activity (Rhizoctonia solani [19]) was 23.2 mg/L, the IC50 [20] was 41.5 µg/mL (≈ 176 µM) and the Activity (Rhizoctonia solani [21]) was 26.2 mg/L. For the same compound, the Activity (Macrophomina phaseolina [22]) was 25.8 mg, the Activity (Macrophomina phaseolina [23]) was 7.4 mg and the Activity (Rhizoctonia solani [24]) was 0.2 mg. The IC50 (Rhizoctonia solani [25]) was 37.5 µg/mL (≈ 159 µM), the Activity (Macrophomina phaseolina [26]) was 10.2 mg and the Activity (Rhizoctonia solani [27]) was 0.4 mg. The Activity (Macrophomina phaseolina [28]) was 22.2 mg, the Activity (Rhizoctonia solani [29]) was 25.2 mg/L and the inhibition (Fusarium culmorum [30]) was 85%. For the same compound, the Activity (Macrophomina phaseolina [31]) was 10.6 mg/L, the inhibition (Fusarium culmorum [32]) was 23.7% and the Activity (Macrophomina phaseolina [33]) was 8.6 mg/L. It also gave an inhibition [34] of 0%, an Activity (Rhizoctonia solani [35]) of 26.6 mg/L and an Activity (Macrophomina phaseolina [36]) of 8.5 mg/L.
